Measurements reported in US12447156B2, “Treating progressive familial intrahepatic cholestasis (PFIC) with IBAT inhibitors” (ALBIREO AB, priority 2020, dated 2025).
Where “and” joins values, the source holds several entries; their conditions need not be identical. Equal values may be shown once.

Tested on: children with PFIC1 or PFIC2
Test: PEDFIC 1 phase 3 randomized, double-blind, placebo-controlled trial: efficacy (pruritus, serum bile acids, hepatic parameters, growth, sleep)
Assay type: in vivo, human
Conditions: for Proportion of Positive Pruritus Assessments Over the Treatment Period, Mean (SE) / Proportion of Positive Pruritus Assessments, Mean Difference vs Placebo (least squares means): 24 weeks; for least squares mean treatment difference vs placebo in proportion of positive pruritus assessments / least square mean proportion of positive pruritus assessments at the patient level: over 24 weeks; for least square mean proportion of positive pruritus assessments at the patient level: ObsRO
Experimental: Odevixibat is an orally administered, potent, luminally restricted, selective IBAT inhibitor in development to treat cholestatic liver diseases. In this phase 3, randomized, 24-week trial (PEDFIC 1), the efficacy and safety of odevixibat versus placebo was evaluated in children with PFIC1 or PFIC2. The efficacy of odevixibat in patients with PFIC was evaluated a 24-week, randomized, double-blind, placebo-controlled trial conducted in 62 patients with a confirmed diagnosis of PFIC Type 1 or Type 2 (NCT03566238; European Union (EU), 2017-002338-21; PEDFIC1; FIG. 1). Patients were randomized 1:1:1 to placebo, or 40 or 120 μg/kg odevixibat and stratified by PFIC Type (1 or 2) and age (6 months to 5 years, 6 to 12 years, and 13 to ≤18 years). Patients with pathologic variations of the ABCB11 gene that predict complete absence of the bile salt export pump (BSEP) protein and those with alanine aminotransferase (ALT)>10×ULN or bilirubin>5×ULN were excluded from the study.
The study consisted of a screening phase and parallel-design treatment period (FIG. 1). Two screening visits occurred: the first took place during days −56 to −35 prior to the first dose of study drug and the second occurred during days −28 to −7. On day 0, all eligible patients were randomized 1:1:1 to oral, once-daily placebo, 40 μg/kg/day odevixibat, or 120 μg/kg/day odevixibat. After written informed consent was obtained, an 8-digit patient identification number was assigned by the Interactive Web Response System (IWRS). The first two digits denoted country, followed by a 3-digit site number, and a 3-digit patient sequence number. The randomization codes were computer generated by a biostatistician at ICON Clinical Research Ltd (Dublin, Ireland) and kept by an unblinded statistician at Firma Clinical Research (Chicago, IL, USA), independent from the project team. Patients deemed eligible for randomization were assigned a unique 4 digit randomization number by the IWRS that identified which treatment was allocated to the patient. Randomization was done in a block size of six and stratified according to PFIC type 1 or 2 and age group (6 months to 5 years, 6 to 12 years, and 13 to ≤18 years) to ensure approximate balance between dose schemes (1:1:1). A separate randomization list was prepared for the patients who had taken part in study A4250-003, regardless of stratification. Randomization codes were assigned sequentially as patients became eligible for randomization. The IWRS system assigned a study drug number(s) corresponding to the randomization arm at each dispensing visit. A 5-digit study drug number identified study drug packs and was detailed on the study drug label.
Treatment was dispensed during on-site clinic visits, and patients or caregivers were instructed to take or administer the study drug at home each morning, either as an intact capsule(s) (swallowed with a glass of water and with food) or sprinkled on soft, room-temperature food (e.g., applesauce, followed by water). The double-blind PEDFIC 1 treatment period lasted 24 weeks.
Children (aged 0.5 to 18 years) with genetic confirmation of biallelic pathogenic mutations in the ATP8B1 (i.e., PFIC1) or ABCB11 genes (i.e., PFIC2), elevated serum bile acids (≥100 μmol/L), history of significant pruritus, and an average caregiver-reported observed scratching score ≥2 (calculated from daily electronic diary [eDiary] entries) in the 14 days prior to randomization, were eligible for inclusion. Additionally, caregivers or age-appropriate patients (≥8 years of age) agreed to use the eDiary device to record symptoms. Patients with two mutations in ABCB11 predicting a complete absence of functional bile salt export pump protein were excluded.
Two different primary endpoints were evaluated. The first primary endpoint in this study was the proportion of positive pruritus assessments at the patient level over the 24-week treatment period based on an observer-reported outcome (ObsRO) instrument. […]

CCCCC1(CCCC)CN(c2ccccc2)c2cc(SC)c(OCC(=O)N[C@@H](C(=O)N[C@@H](CC)C(=O)O)c3ccc(O)cc3)cc2S(=O)(=O)N1 [Odevixibat, 1,1-dioxo-3,3-dibutyl-5-phenyl-7-methylthio-8-(N-{(R)-α-[N-((S)-1-carboxypropyl)carbamoyl]-4-hydroxybenzyl}carbamoylmethoxy)-2,3,4,5-tetrahydro-1,2,5-benzothiadiazepine]
Patients with Reduction in Serum Bile Acids, % Difference vs Placebo (PEDFIC 1, 40 μg/kg/day): 44.1% | mean percentage difference vs placebo in patients who met the serum bile acid reduction endpoint (PEDFIC 1, 40 μg/kg/day): 44.1% | Proportion of Positive Pruritus Assessments Over the Treatment Period, Mean (SE) (PEDFIC 1, 40 μg/kg/day (n = 23)): 58.31 (6.205) | Proportion of Positive Pruritus Assessments, Mean Difference vs Placebo (least squares means) (PEDFIC 1, 40 μg/kg/day): 28.23 (9.182) | Autotaxin, change from baseline to week 24, mean (PEDFIC 1, 40 μg/kg/day, n 14): -1698 ng/mL | APRI, change from baseline to week 24, mean (PEDFIC 1, 40 μg/kg/day, n 15): −0.1 | C4 (7alpha-hydroxy-4-cholesten-3-one), change from baseline to week 24, mean (PEDFIC 1, 40 μg/kg/day, n 15): 15.7 ng/mL | FIB-4, change from baseline to week 24, mean (PEDFIC 1, 40 μg/kg/day, n 15): 0.0 | PELD/MELD, change from baseline to week 24, mean (PEDFIC 1, 40 μg/kg/day, n 15): −2.4 | GGT, change from baseline to week 24, mean (SE) (PEDFIC 1, 40 μg/kg/day, n 17): −3 (2) U/L | Serum AST, change from baseline to week 24, mean (PEDFIC 1, 40 μg/kg/day, n 17): −37 U/L | Total bilirubin, change from baseline to week 24, mean (PEDFIC 1, 40 μg/kg/day, n 17): -1.4 mg/dL | Proportion of Patients with Reduction in Serum Bile Acids at End of Treatment (PEDFIC 1, 40 μg/kg/day, n = 23): 10 (43.5) n (%) | least squares mean treatment difference vs placebo in proportion of positive pruritus assessments (PEDFIC 1, 40 μg/kg/day): 28.2% | least square mean proportion of positive pruritus assessments at the patient level (PEDFIC 1, 40 μg/kg/day): 58% | proportion of patients achieving a serum bile acid response (≥70% reduction or ≤70 μmol/L) (PEDFIC 1, 40 μg/kg/day, week 24): 44% | mean (SE) change from baseline to end of treatment in height z-score (PEDFIC 1, 40 μg/kg/day, placebo 0.10 (0.102)): 0.29 (0.106) | mean (SE) change from baseline to end of treatment in ALT (PEDFIC 1, 40 μg/kg/day, placebo 3.7 (4.95)): −27.9 (17.97) U/L | mean change from baseline to end of treatment in percentage of days sleeping with the caregiver (PEDFIC 1, 40 μg/kg/day, placebo −5.5%): −49.4% | mean change from baseline to end of treatment in percentage of days requiring soothing (PEDFIC 1, 40 μg/kg/day, placebo −7.6%): −51.5% | Patients with Reduction in Serum Bile Acids, % Difference vs Placebo (PEDFIC 1, 120 μg/kg/day): 21.6% | mean (SE) change from baseline to end of treatment in ALT (PEDFIC 1, 120 μg/kg/day): −25.3 (22.47) U/L | mean (SE) change from baseline to end of treatment in height z-score (PEDFIC 1, 120 μg/kg/day): 0.15 (0.124) | mean change from baseline to end of treatment in percentage of days requiring soothing (PEDFIC 1, 120 μg/kg/day): −34.9% | mean change from baseline to end of treatment in percentage of days sleeping with the caregiver (PEDFIC 1, 120 μg/kg/day): −33.1% | mean percentage difference vs placebo in patients who met the serum bile acid reduction endpoint (PEDFIC 1, 120 μg/kg/day): 21.6% | Proportion of Positive Pruritus Assessments Over the Treatment Period, Mean (SE) (PEDFIC 1, 120 μg/kg/day (n = 19)): 47.69 (8.110) | Proportion of Positive Pruritus Assessments, Mean Difference vs Placebo (least squares means) (PEDFIC 1, 120 μg/kg/day): 21.71 (9.892) | APRI, change from baseline to week 24, mean (PEDFIC 1, 120 μg/kg/day, n 8): 0.0 | FIB-4, change from baseline to week 24, mean (PEDFIC 1, 120 μg/kg/day, n 8): 0.1 | Autotaxin, change from baseline to week 24, mean (PEDFIC 1, 120 μg/kg/day, n 12): -1018 ng/mL | C4 (7alpha-hydroxy-4-cholesten-3-one), change from baseline to week 24, mean (PEDFIC 1, 120 μg/kg/day, n 12): 15.8 ng/mL | PELD/MELD, change from baseline to week 24, mean (PEDFIC 1, 120 μg/kg/day, n 14): −1.1 | GGT, change from baseline to week 24, mean (SE) (PEDFIC 1, 120 μg/kg/day, n 15): −1 (1) U/L | Serum AST, change from baseline to week 24, mean (PEDFIC 1, 120 μg/kg/day, n 15): −27 U/L | Total bilirubin, change from baseline to week 24, mean (PEDFIC 1, 120 μg/kg/day, n 15): -1.1 mg/dL | Proportion of Patients with Reduction in Serum Bile Acids at End of Treatment (PEDFIC 1, 120 μg/kg/day, n = 19): 4 (21.1) n (%) | least squares mean treatment difference vs placebo in proportion of positive pruritus assessments (PEDFIC 1, 120 μg/kg/day): 21.7% | least square mean proportion of positive pruritus assessments at the patient level (PEDFIC 1, 120 μg/kg/day): 52% | proportion of patients achieving a serum bile acid response (≥70% reduction or ≤70 μmol/L) (PEDFIC 1, 120 μg/kg/day, week 24): 21% | percentage of days seeing blood due to scratching, number of awakenings, percentage of days taking medications to induce sleep: odevixibat vs placebo (PEDFIC 1, 24 weeks): no clear differences | reduction of autotaxin levels (PEDFIC 1, 24 weeks of treatment): approximately half | Patients with Reduction in Serum Bile Acids, % Difference vs Placebo (PEDFIC 1, Total odevixibat): 30.7% | Proportion of Positive Pruritus Assessments Over the Treatment Period, Mean (SE) (PEDFIC 1, Total odevixibat (N = 42), placebo 28.74 (5.209)): 53.51 (5.006) | Proportion of Patients with Reduction in Serum Bile Acids at End of Treatment (PEDFIC 1, Total odevixibat (N = 42), placebo 0): 14 (33.3) n (%) | Proportion of Positive Pruritus Assessments, Mean Difference vs Placebo (least squares means) (PEDFIC 1, Total odevixibat): 24.97 (8.240) | patients undergoing surgical interruption of the enterohepatic circulation or liver transplantation (PEDFIC 1, all 62 patients, during the study): None | mean (SE) change from baseline in ObsRO pruritus score (mean monthly) (PEDFIC 1, all doses, baseline to weeks 21 through 24, placebo −0.25 (0.2)): −1.11 (0.2) | APRI, change from baseline to week 24, mean (PEDFIC 1, all doses, n 23): −0.1 | FIB-4, change from baseline to week 24, mean (PEDFIC 1, all doses, n 23): 0.0 | Autotaxin, change from baseline to week 24, mean (PEDFIC 1, all doses, n 26): -1384 ng/mL | C4 (7alpha-hydroxy-4-cholesten-3-one), change from baseline to week 24, mean (PEDFIC 1, all doses, n 27): 15.7 ng/mL | PELD/MELD, change from baseline to week 24, mean (PEDFIC 1, all doses, n 29): −1.8 | GGT, change from baseline to week 24, mean (SE) (PEDFIC 1, all doses, n 32): −2 (1) U/L | Serum AST, change from baseline to week 24, mean (PEDFIC 1, all doses, n 32): −32 U/L | Total bilirubin, change from baseline to week 24, mean (PEDFIC 1, all doses, n 32): -1.3 mg/dL | least square mean proportion of positive pruritus assessments at the patient level (PEDFIC 1, all doses, placebo 30%): 55% and 55.1% | proportion of patients achieving a serum bile acid response (≥70% reduction or ≤70 μmol/L) (PEDFIC 1, all doses, week 24, placebo 0): 33% and 33.3% | mean (SE) change in serum ALT (PEDFIC 1, all doses, week 24, placebo 3.7 (5.0)): −26.7 (14.0) U/L | proportion of patients with clinically meaningful change in pruritus (≥1-point decrease, mean monthly score) (PEDFIC 1, all doses, week 24, placebo 11%): 43% | mean change in serum bile acid levels (PEDFIC 1, all doses, weeks 22 through 24 / end of treatment, placebo +13.1): -114.3 µmol/L | mean pruritus score change from baseline to end of treatment (PEDFIC 1, all doses, placebo −0.25, scale 0-4): −1.13 | mean change in daytime tiredness score (0-4) (PEDFIC 1, odevixibat overall, baseline to weeks 21 to 24, placebo −0.49): −0.99 | mean change from baseline in percentage of days needing help falling asleep (PEDFIC 1, odevixibat overall, weeks 21 to 24, placebo −3%): −43% | mean change from baseline in percentage of days sleeping with the caregiver (PEDFIC 1, odevixibat overall, weeks 21 to 24, placebo −6%): −42% | mean change from baseline in percentage of days with soothing (PEDFIC 1, odevixibat overall, weeks 21 to 24, placebo −8%): −44% | mean (SE) change from baseline to week 24 in weight Z-score (PEDFIC 1, patients treated with odevixibat, placebo 0.1 (0.1)): 0.2 (0.1) | mean (SE) change from baseline to week 24 in height Z-score (PEDFIC 1, patients treated with odevixibat, placebo −0.2 (0.1)): 0.0 (0.1) | proportion of patients who met serum bile acid response criteria (PEDFIC 1, patients with PFIC1, week 24): 17% | proportion of patients who met serum bile acid response criteria (PEDFIC 1, patients with PFIC2, week 24): 40%
